Article PMC8800111 (The Journal of Biological Chemistry, 2021)

How the values were obtained:
Format in all cases: cell-based
[1] = target: proteins of U3A human fibrosarcoma cells (4462 proteins detected) (Homo sapiens, UniProt O00629); conditions: protein KPNA4; U3A cells
[2] = target: proteins of U3A human fibrosarcoma cells (4462 proteins detected) (Homo sapiens, UniProt O15400); conditions: protein STX7; U3A cells
[3] = target: proteins of U3A human fibrosarcoma cells (4462 proteins detected) (Homo sapiens, UniProt O75400); conditions: protein PRPF40A; U3A cells
Sequence of proteins of U3A human fibrosarcoma cells (4462 proteins detected) (Homo sapiens, UniProt O75400) (O75400 whole entry): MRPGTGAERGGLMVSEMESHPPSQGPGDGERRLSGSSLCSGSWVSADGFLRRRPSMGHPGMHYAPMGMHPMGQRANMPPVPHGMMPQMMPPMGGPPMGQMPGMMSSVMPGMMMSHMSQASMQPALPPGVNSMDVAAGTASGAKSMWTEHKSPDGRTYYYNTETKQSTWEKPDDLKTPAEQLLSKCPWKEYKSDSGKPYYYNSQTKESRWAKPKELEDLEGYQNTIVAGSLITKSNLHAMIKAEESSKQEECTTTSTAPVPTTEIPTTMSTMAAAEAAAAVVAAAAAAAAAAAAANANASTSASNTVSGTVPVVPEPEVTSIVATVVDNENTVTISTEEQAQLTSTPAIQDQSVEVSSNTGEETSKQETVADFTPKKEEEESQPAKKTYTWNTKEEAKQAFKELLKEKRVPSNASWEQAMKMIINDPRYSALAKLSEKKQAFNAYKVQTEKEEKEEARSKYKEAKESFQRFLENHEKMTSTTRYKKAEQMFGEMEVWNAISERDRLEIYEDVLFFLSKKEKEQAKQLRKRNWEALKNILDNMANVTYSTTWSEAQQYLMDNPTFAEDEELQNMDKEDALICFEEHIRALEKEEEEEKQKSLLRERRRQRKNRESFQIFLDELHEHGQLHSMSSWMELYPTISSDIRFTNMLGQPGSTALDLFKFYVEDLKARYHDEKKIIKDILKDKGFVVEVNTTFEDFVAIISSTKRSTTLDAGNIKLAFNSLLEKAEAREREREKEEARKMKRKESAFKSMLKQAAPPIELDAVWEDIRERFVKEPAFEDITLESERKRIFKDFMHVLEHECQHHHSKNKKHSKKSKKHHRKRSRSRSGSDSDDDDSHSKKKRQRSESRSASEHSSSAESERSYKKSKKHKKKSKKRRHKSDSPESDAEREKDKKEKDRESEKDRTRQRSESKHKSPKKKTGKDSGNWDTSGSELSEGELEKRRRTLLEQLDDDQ

[4] = target: proteins of U3A human fibrosarcoma cells (4462 proteins detected) (Homo sapiens, UniProt O75635); conditions: protein SERPINB7; U3A, 10 μM, 2 h
Sequence of proteins of U3A human fibrosarcoma cells (4462 proteins detected) (Homo sapiens, UniProt O75635) (O75635 whole entry): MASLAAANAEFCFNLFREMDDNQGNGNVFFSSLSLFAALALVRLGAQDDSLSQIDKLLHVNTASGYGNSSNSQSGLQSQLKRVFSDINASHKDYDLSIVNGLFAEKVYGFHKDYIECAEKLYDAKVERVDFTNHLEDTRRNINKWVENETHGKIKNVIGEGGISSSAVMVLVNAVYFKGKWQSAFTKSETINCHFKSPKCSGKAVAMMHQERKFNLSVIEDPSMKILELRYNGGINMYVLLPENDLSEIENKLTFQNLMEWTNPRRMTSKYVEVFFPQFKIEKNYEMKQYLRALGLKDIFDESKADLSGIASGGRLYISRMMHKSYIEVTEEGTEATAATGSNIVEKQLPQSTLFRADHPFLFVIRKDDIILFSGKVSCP

[5] = target: proteins of U3A human fibrosarcoma cells (4462 proteins detected) (Homo sapiens, UniProt O75909); conditions: protein CCNK; U3A cells
[6] = target: proteins of U3A human fibrosarcoma cells (4462 proteins detected) (Homo sapiens, UniProt O95197); conditions: protein RTN3; U3A cells
[7] = target: proteins of U3A human fibrosarcoma cells (4462 proteins detected) (Homo sapiens, UniProt P01040); conditions: protein CSTA, U3A cells
Sequence of proteins of U3A human fibrosarcoma cells (4462 proteins detected) (Homo sapiens, UniProt P01040) (P01040 whole entry): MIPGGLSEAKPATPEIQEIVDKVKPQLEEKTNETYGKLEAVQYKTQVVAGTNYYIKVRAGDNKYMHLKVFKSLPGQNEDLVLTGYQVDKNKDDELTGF

[8] = target: proteins of U3A human fibrosarcoma cells (4462 proteins detected) (Homo sapiens, UniProt P10809); conditions: protein HSPD1; U3A, 10 μM, 2 h
Sequence of proteins of U3A human fibrosarcoma cells (4462 proteins detected) (Homo sapiens, UniProt P10809) (P10809 27-573): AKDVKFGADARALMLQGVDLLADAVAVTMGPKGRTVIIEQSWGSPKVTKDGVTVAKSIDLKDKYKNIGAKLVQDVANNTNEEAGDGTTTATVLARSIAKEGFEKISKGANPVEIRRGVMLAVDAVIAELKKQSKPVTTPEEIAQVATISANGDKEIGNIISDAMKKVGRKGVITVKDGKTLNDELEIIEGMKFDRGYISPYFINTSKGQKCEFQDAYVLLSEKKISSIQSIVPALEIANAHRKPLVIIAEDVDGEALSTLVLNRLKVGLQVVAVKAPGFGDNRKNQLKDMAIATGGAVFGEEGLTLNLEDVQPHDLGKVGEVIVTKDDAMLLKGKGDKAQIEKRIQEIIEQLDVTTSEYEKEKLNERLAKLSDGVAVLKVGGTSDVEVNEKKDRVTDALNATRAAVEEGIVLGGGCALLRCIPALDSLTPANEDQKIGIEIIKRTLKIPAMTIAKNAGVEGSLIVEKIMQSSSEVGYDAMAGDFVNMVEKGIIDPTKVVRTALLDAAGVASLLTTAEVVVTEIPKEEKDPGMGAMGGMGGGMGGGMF

[9] = target: proteins of U3A human fibrosarcoma cells (4462 proteins detected) (Homo sapiens, UniProt P20042); conditions: protein EIF2S2; U3A cells
[10] = target: proteins of U3A human fibrosarcoma cells (4462 proteins detected) (Homo sapiens, UniProt P26583); conditions: protein HMGB2; U3A, 10 μM, 2 h
Sequence of proteins of U3A human fibrosarcoma cells (4462 proteins detected) (Homo sapiens, UniProt P26583) (P26583 whole entry): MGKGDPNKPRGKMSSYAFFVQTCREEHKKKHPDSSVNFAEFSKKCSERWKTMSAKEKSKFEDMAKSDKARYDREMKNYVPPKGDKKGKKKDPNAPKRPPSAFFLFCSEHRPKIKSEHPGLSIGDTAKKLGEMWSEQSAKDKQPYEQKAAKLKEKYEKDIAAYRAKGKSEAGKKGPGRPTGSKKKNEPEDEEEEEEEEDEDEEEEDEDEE

[11] = target: proteins of U3A human fibrosarcoma cells (4462 proteins detected) (Homo sapiens, UniProt P35790); conditions: protein CHKA; U3A, 10 μM, 2 h
[12] = target: proteins of U3A human fibrosarcoma cells (4462 proteins detected) (Homo sapiens, UniProt P41214); conditions: protein EIF2D; U3A cells
[13] = target: proteins of U3A human fibrosarcoma cells (4462 proteins detected) (Homo sapiens, UniProt P46060); conditions: protein RANGAP1; U3A cells
[14] = target: proteins of U3A human fibrosarcoma cells (4462 proteins detected) (Homo sapiens, UniProt P54802); conditions: protein NAGLU, U3A cells
Sequence of proteins of U3A human fibrosarcoma cells (4462 proteins detected) (Homo sapiens, UniProt P54802) (P54802 24-743): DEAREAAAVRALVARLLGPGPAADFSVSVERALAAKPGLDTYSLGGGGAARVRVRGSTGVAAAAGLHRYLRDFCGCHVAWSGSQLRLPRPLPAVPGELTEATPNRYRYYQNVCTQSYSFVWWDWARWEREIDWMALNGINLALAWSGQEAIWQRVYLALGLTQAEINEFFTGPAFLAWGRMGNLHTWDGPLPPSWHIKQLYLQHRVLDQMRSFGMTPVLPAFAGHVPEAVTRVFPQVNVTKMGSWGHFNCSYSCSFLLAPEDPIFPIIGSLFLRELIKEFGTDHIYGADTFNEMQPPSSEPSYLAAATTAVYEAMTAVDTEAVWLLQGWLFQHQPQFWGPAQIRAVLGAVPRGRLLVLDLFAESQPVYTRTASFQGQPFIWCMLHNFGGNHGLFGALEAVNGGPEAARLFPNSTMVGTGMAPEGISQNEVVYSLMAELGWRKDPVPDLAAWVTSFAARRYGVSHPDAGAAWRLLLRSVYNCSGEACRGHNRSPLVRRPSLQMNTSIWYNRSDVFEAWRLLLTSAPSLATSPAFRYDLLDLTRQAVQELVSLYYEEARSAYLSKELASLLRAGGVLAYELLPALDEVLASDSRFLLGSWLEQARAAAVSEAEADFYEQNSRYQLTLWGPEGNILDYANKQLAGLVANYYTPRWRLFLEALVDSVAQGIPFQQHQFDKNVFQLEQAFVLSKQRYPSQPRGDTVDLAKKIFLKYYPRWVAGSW

[15] = target: proteins of U3A human fibrosarcoma cells (4462 proteins detected) (Homo sapiens, UniProt P78559); conditions: protein MAP1A, U3A cells
[16] = target: proteins of U3A human fibrosarcoma cells (4462 proteins detected) (Homo sapiens, UniProt Q06323); conditions: protein PSME1; soluble abundance after heat, U3A cells
[17] = target: proteins of U3A human fibrosarcoma cells (4462 proteins detected) (Homo sapiens, UniProt Q13217); conditions: protein DNAJC3; soluble abundance after heat, U3A cells
Sequence of proteins of U3A human fibrosarcoma cells (4462 proteins detected) (Homo sapiens, UniProt Q13217) (Q13217 32-504): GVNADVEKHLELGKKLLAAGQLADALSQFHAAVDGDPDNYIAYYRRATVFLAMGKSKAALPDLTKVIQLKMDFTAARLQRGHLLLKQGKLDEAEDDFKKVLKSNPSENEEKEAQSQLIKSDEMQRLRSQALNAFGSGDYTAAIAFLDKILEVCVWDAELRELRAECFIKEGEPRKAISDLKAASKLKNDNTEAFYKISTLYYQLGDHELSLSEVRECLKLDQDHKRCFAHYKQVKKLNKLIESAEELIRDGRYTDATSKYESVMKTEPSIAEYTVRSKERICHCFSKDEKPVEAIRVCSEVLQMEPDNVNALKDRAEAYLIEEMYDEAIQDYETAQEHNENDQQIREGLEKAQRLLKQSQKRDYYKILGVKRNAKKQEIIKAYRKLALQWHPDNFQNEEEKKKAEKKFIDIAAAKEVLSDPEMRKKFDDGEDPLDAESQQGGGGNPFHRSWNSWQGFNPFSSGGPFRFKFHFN

[18] = target: proteins of U3A human fibrosarcoma cells (4462 proteins detected) (Homo sapiens, UniProt Q13330); conditions: protein MTA1; U3A cells
[19] = target: proteins of U3A human fibrosarcoma cells (4462 proteins detected) (Homo sapiens, UniProt Q5JSH3); conditions: protein WDR44, U3A cells
[20] = target: proteins of U3A human fibrosarcoma cells (4462 proteins detected) (Homo sapiens, UniProt Q5VW36); conditions: protein FOCAD; U3A cells
[21] = target: proteins of U3A human fibrosarcoma cells (4462 proteins detected) (Homo sapiens, UniProt Q7L5Y9); conditions: protein MAEA; U3A cells
Sequence of proteins of U3A human fibrosarcoma cells (4462 proteins detected) (Homo sapiens, UniProt Q7L5Y9) (Q7L5Y9 whole entry): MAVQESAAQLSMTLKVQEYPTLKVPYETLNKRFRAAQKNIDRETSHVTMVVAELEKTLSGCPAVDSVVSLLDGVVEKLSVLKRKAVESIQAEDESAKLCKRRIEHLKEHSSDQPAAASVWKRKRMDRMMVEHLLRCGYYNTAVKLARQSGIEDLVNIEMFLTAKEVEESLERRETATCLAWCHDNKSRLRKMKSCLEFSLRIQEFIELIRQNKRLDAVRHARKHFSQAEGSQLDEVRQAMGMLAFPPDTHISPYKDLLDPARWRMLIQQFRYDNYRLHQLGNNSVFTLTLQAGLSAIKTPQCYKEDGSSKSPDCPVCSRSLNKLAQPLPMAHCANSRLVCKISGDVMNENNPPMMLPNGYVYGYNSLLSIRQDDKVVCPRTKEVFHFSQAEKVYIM

[22] = target: proteins of U3A human fibrosarcoma cells (4462 proteins detected) (Homo sapiens, UniProt Q86TS9); conditions: protein MRPL52; soluble abundance after heat, U3A cells
[23] = target: proteins of U3A human fibrosarcoma cells (4462 proteins detected) (Homo sapiens, UniProt Q8N465); conditions: protein D2HGDH; soluble abundance after heat, U3A cells
Sequence of proteins of U3A human fibrosarcoma cells (4462 proteins detected) (Homo sapiens, UniProt Q8N465) (Q8N465 14-521): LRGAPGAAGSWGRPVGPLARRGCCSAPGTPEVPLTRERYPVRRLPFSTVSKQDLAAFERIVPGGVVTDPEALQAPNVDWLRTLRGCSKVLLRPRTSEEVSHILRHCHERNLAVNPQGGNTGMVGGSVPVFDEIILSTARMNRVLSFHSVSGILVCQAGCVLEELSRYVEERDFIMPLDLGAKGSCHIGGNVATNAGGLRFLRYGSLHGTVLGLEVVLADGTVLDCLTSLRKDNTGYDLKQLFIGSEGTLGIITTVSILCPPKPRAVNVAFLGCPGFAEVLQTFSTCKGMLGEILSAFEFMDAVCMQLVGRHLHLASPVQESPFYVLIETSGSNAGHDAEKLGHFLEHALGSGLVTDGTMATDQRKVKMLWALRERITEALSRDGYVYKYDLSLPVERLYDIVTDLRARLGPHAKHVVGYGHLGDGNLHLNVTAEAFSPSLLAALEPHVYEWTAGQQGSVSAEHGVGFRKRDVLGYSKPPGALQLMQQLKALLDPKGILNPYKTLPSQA

[24] = target: proteins of U3A human fibrosarcoma cells (4462 proteins detected) (Homo sapiens, UniProt Q92530); conditions: protein PSMF1; soluble abundance after heat, U3A cells
Sequence of proteins of U3A human fibrosarcoma cells (4462 proteins detected) (Homo sapiens, UniProt Q92530) (Q92530 whole entry): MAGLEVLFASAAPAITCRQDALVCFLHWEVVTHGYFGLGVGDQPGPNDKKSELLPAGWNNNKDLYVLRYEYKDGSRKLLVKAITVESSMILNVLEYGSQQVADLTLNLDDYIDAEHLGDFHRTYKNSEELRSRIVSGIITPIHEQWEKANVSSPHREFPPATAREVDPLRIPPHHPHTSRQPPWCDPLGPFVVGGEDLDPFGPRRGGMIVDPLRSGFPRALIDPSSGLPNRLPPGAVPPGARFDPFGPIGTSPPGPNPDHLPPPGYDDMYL

[25] = target: proteins of U3A human fibrosarcoma cells (4462 proteins detected) (Homo sapiens, UniProt Q96EY8); conditions: protein MMAB; U3A cells
[26] = target: proteins of U3A human fibrosarcoma cells (4462 proteins detected) (Homo sapiens, UniProt Q9H4E7); conditions: protein DEF6; U3A cells
[27] = target: proteins of U3A human fibrosarcoma cells (4462 proteins detected) (Homo sapiens, UniProt Q9P2E9); conditions: protein RRBP1; soluble abundance after heat, U3A cells
[28] = target: proteins of U3A human fibrosarcoma cells (4462 proteins detected) (Homo sapiens, UniProt Q9UHN1); conditions: protein POLG2; soluble abundance after heat, U3A cells
[29] = target: proteins of U3A human fibrosarcoma cells (4462 proteins detected) (Homo sapiens, UniProt Q9Y5J6); conditions: protein TIMM10B; U3A cells
Sequence of proteins of U3A human fibrosarcoma cells (4462 proteins detected) (Homo sapiens, UniProt Q9Y5J6) (Q9Y5J6 whole entry): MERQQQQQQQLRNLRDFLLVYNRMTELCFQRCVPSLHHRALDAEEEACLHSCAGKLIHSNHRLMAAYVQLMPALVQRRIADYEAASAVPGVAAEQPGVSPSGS

[30] = target: proteins of U3A human fibrosarcoma cells (4462 proteins detected) (Homo sapiens, UniProt Q9Y5N6); conditions: protein ORC6; U3A cells

Sequence of proteins of U3A human fibrosarcoma cells (4462 proteins detected) (Homo sapiens, UniProt O15400) (O15400 whole entry): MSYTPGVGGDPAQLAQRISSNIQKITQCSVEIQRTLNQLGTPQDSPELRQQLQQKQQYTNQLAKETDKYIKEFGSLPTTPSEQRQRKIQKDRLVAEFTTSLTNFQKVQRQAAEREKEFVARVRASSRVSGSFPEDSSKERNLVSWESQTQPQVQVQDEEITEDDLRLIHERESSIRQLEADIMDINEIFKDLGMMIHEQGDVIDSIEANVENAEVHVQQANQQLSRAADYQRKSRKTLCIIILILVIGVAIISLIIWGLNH

SMILES: CCc1nc(N)nc(N)c1-c1ccc(Cl)cc1 [pyrimethamine]
- Log2 (PYR/DMSO) [1]: 0.22
- Log2 (PYR/DMSO) [2]: 0.18
- Log2 (PYR/DMSO) [3]: 0.16
- Log2 (PYR/DMSO), SERPINB7 [4]: -0.19
- Log2 (PYR/DMSO) [5]: 0.22
- Log2 (PYR/DMSO) [6]: 0.16
- Log2 (PYR/DMSO) [7]: -0.04
- Log2 (PYR/DMSO), HSPD1 [8]: 0.35
- Log2 (PYR/DMSO) [9]: 0.17
- Log2 (PYR/DMSO), HMGB2 [10]: -0.14
- Log2 (PYR/DMSO), CHKA [11]: 0.24
- Log2 (PYR/DMSO) [12]: 0.22
- Log2 (PYR/DMSO) [13]: 0.18
- Log2 (PYR/DMSO) [14]: -0.03
- Log2 (PYR/DMSO) [15]: -0.04
- Log2 (PYR/DMSO) [16]: 0.14
- Log2 (PYR/DMSO) [17]: 0.14
- Log2 (PYR/DMSO) [18]: 0.16
- Log2 (PYR/DMSO) [19]: -0.05
- Log2 (PYR/DMSO) [20]: 0.20
- Log2 (PYR/DMSO) [21]: 0.16
- Log2 (PYR/DMSO) [22]: 0.15
- Log2 (PYR/DMSO) [23]: 0.15
- Log2 (PYR/DMSO) [24]: 0.13
- Log2 (PYR/DMSO) [25]: 0.19
- Log2 (PYR/DMSO) [26]: 0.22
- Log2 (PYR/DMSO) [27]: 0.15
- Log2 (PYR/DMSO) [28]: 0.15
- Log2 (PYR/DMSO) [29]: 0.18
- Log2 (PYR/DMSO) [30]: 0.18
